Target: T1, Bile salt-activated lipase (Bos taurus, UniProt P30122)
T1 sequence (P30122 whole entry): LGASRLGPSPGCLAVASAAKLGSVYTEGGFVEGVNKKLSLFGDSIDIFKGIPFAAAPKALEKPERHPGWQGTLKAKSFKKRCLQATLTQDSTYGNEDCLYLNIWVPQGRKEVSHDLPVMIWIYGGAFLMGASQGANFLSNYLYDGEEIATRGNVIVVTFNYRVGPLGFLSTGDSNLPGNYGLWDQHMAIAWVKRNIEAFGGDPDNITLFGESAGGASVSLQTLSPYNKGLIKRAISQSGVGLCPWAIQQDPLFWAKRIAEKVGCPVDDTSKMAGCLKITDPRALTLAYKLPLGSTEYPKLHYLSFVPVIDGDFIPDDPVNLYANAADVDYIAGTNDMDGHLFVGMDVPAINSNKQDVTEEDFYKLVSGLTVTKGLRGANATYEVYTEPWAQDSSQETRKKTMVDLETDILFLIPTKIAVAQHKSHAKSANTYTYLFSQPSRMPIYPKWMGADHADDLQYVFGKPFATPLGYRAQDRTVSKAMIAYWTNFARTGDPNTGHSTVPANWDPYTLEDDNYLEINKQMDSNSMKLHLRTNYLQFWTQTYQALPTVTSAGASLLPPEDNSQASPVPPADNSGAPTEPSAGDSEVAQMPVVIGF
Test: Bimolecular rate constant (ki) for the Pancreatic cholesterol esterase-catalyzed hydrolysis of 4-nitrophenyl butyrate
Details: for kon: read-out: kon (M-1-s-1)

Row | kon (M-1-s-1) | kon [M⁻¹ s⁻¹] | SMILES
1 | 500000.000000 M-1-s-1 | 500000 | CCCCNC(=O)Oc1ccc2ccccc2c1-c1c(O)ccc2ccccc12 [Butyl-carbamic acid 2'-hydroxy-[1,1']binaphthalenyl-2-yl ester]
2 | 4000 M-1-s-1 | 4000 | CCCCNC(=O)Oc1ccc2ccccc2c1-c1c(OC(=O)NCCCC)ccc2ccccc12 [Butyl-carbamic acid 2'-butylcarbamoyloxy-[1,1']binaphthalenyl-2-yl ester]
3 | 6000 M-1-s-1 | 6000 | CCCCNC(=O)Oc1ccc2ccccc2c1-c1c(OC(=O)CCC)ccc2ccccc12 [Butyric acid 2'-butylcarbamoyloxy-[1,1']binaphthalenyl-2-yl ester]

Source: BindingDB's records for doi:10.1016/0960-894X(95)00549-9 (1996)
